According to patent US11357752B2, “Carolacton and derivatives thereof for use in the treatment of cell proliferation disorders” (Helmholtz-Zentrum für Infektionsforschung GmbH, priority 2017, dated 2022):

Tests used:
hsMTHFD1 DC301 = molecular target: T1, hsMTHFD1 DC301 (Homo sapiens, UniProt P11586); test: FoID cyclohydrolase (CYH) enzyme assay; assay type: biochemical
T1 construct: We therefore expressed and purified hsMTHFD2 and hsMTHFD1_DC to test them biochemically; His-tag (vector pHis-TEV); made in house; host or cells: E. coli BL21 (DE3)
T1 sequence (P11586 2-291 limits assumed): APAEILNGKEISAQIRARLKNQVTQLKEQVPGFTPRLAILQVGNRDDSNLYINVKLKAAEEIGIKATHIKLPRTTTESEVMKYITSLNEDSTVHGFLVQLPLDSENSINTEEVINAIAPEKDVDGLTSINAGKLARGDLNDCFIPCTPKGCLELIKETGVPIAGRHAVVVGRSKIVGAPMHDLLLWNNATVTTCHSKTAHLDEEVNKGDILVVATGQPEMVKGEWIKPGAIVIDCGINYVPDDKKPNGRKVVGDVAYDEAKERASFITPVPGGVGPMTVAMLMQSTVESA
Procedure: (§1) (6R,S)-5,10-Methylene-5,6,7,8-tetrahydrofolic acid ((6R,S)-5,10-CH2-THF), calcium salt and (6R,S)-5,10-Methenyl-5,6,7,8-tetrahydrofolic acid ((6R,S)-5,10-CH=THF) chloride were purchased from Schircks Laboratories (Bauma, Switzerland) and were used as substrates for FoID dehydrogenase and cyclohydrolase enzyme assays, respectively. Only the R-isomer, which accounts for 50% of (6R,S)-5,10-CH2-THF and (6R,S)-5,10-CH=THF, respectively, is used by the enzyme. (6R,S)-5,10-CH2-THF was dissolved in N2-spargeled basic buffer (50 mM Tris-HCl (pH 8.0), 100 mM β-mercaptoethanol) as described by Sah and Varshney, 2015a (6R,S)-5,10-CH=THF was first dissolved in DMSO as a 100 mM stock solution.
(§2) Because FoID is a bifunctional enzyme, dehydrogenase and cyclohydrolase activities were determined for FoID enzyme kinetics, respectively. The dehydrogenase activity of FoID was assayed for its substrate 5,10-CH2-THF and cofactor NADP+ (in the case of MTHFD2, NAD+ was used as cofactor) based on monitoring the formation of 5,10-CH=THF while the cyclohydrolase activity of FoID was determined for its substrate 5,10-CH=THF by monitoring the hydrolysis of 5,10-CH2-THF. The enzyme kinetics for the dehydrogenase activity of all FoIDs except hsMTHFD1_DC were determined at 30° C. in 50 mM Tris-HCl (pH 7.5), 30 mM β-mercaptoethanol. The hsMTHFD1_DC dehydrogenase activity was measured in 25 mM MOPS (pH 7.3), 30 mM β-mercaptoethanol at 30° C. To measure the enzyme kinetics constants for 5,10-CH2-THF, for example in the case of ecFoID, the NADP concentration was fixed at 1 mM and the concentration of 5,10-CH2-THF varied from 5 μM to 1,500 μM (R-isomer). Similarly, to measure the kinetic constants of ecFoID for NADP+, the concentration of 5,10-CH2-THF (R-isomer) was fixed at 1 mM and the concentration of NADP+ varied from 10 μM to 1,500 μM. For different FoIDs, the varied concentration range of substrates could be different. […] To monitor the formation of 5,10-CH=THF, the absorbance of the reaction mixture was monitored at 350 nm in micro UV cuvettes (BRAND, Essex, Connecticut, USA). The concentration of 5,10-CH=THF produced in the reaction was determined using an extinction co-efficient of 0.0249 μM-1 cm-1. […] The consumption of 5,10-CH=THF was measured by recording the absorbance of the reactions at 355 nm using the TECAN Infinite 200 PRO equipped with a monochromator. […] The inhibition constants (Ki) of carolacton on FoID were determined by measuring the apparent Km values when adding certain amounts of carolacton to the enzyme reactions. […] To compare the inhibition effects of carolacton between the different FoIDs, the half maximal inhibitory concentration (IC50) of carolacton on the same amount of enzyme was determined for FoIDs involved in this study. […]

hsMTHFD2 = molecular target: T2, hsMTHFD2 (Homo sapiens, UniProt P13995); test: FoID cyclohydrolase (CYH) enzyme assay; assay type: biochemical
T2 construct: His-tag (vector pHis-TEV); made in house; host or cells: E. coli BL21 (DE3)
T2 sequence (P13995 36-350): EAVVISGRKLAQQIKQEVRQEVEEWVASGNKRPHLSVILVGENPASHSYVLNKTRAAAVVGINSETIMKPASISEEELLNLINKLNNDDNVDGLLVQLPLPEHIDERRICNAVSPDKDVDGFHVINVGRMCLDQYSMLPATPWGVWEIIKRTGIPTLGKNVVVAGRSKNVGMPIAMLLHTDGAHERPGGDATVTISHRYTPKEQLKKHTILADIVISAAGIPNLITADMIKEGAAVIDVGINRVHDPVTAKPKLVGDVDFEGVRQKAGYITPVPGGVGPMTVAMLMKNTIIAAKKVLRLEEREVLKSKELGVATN
Procedure: as §1, §2

[1] = 5 nM enzyme, read-out: IC50, carolacton inhibition on CYH activity
[2] = vs 5,10-CH=THF, read-out: Ki (5,10-CH═THF), carolacton inhibition on CYH activity

In the case of `CO[C@H](CC(=O)O)[C@@H](C)C(=O)[C@H](C)/C=C(\C)[C@H]1OC(=O)[C@H](O)[C@H](O)/C=C/[C@H](C)CCC[C@@H]1C` [Carolacton, carolacton], the IC50 (hsMTHFD1 DC301; [1]) is reported as 19.4 nM, the Ki (hsMTHFD1 DC301; [2]) is reported as 20.6 nM and the IC50 (hsMTHFD2; [1]) is reported as 85.7 nM. For the same molecule, the Ki (hsMTHFD2; [2]) was 12.7 nM.
